# Reference: patent publication US20090176714A1, “METHOD OF REDUCING THE EFFECTS OF ABeta AND COMPOSITIONS THEREFORE” (priority 2004, published 2009)
# Tests used:
# human cortical slices = assay: Aβ-induced cell death (EthD-1/calcein AM) in human organotypic cortical cultures; assay type: cell-based
# Excerpt: Four patients with intractable epilepsy who had elected to undergo a temporal lobe resection were recruited for this study. […] However, the overlying temporal cortex is normal. The age of the subjects ranged from 20 to 49. Brain tissue was obtained with informed consent from all patients.
# Brain tissue was removed in large, intact pieces by electrocautery. Tissue obtained from the temporal cortex was approximately 3 cm×2 cm×1.5-2 cm. Immediately following removal, the tissue was placed in ice-cold Neuregen-I media (Brainbits, Springfield, Ill.), a CO2 independent transport and holding medium, and transported to a tissue culture laboratory. Meninges were removed before cutting the tissue with a scalpel to produce blocks about 0.5-1 cm^3 such that each gyrus was kept as intact as possible and the cortical layers were preserved. As described previously, incisions were made perpendicular to the longitudinal axis of the gyrus and along the white matter (Verwer et al., Exp. Gerontol., 38:167-172 (2003)). A vibratome was used to cut 400 μm thick slices at a plane perpendicular to the longitudinal axis of the gyrus. Thus, all cortical layers and a small amount of white matter were included in a slice. Alternately, small tissue pieces, which were usually obtained from the hippocampus, were cut at 400 μm using a McIlwain tissue chopper. No more than 2 slices were placed on a filter insert with a 30 mm diameter and a 0.4 μm filter pore size (Millipore, Billerica, Mass.) held in 6-well culture plates. For the first 12 hours, slices were kept in 1-1.2 mL Neurobasal media with B-27 supplement, 0.5 mM glutamine, and 1% penicillin/streptomycin (Invitrogen). Subsequently, the media was changed every 2 days using 1 mL of media without antibiotics. Organotypic cultures were maintained in a humidified incubator at 37° C. in 5% O2, 5% CO2, and 90% N for 4 to 28 days.
# Cell death and viability was determined on live slices using the fluorescent probes from Molecular Probes' Live/Dead Kit. After a 40 minute incubation in calcein AM (1:400) and ethidium homodimer (1:1000) in phosphate buffered saline, slices were visualized at 200× magnification with an inverted Nikon Diaphot 200 microscope using the Bio-Rad MRC-1024 Laser Scanning Confocal system (Hercules, Calif.). Random images were captured at the emission spectrum of each probe, and Scion Image software (Frederick, Md.) was used to quantify the number of live and dead cells. At least three areas were imaged and used to determine the percent death for each slice. The percent death was calculated as the number of EthD-1 positive cells divided by the total number of EthD-1 and calcein AM positive cells.
# β-amyloid1-42 and reverse Aβ (Aβ42-1) were obtained from BACHEM (Torrance, Calif.). These peptides were dissolved in 0.1% NH3OH at 222 μM. For treatments, Aβ or reverse Aβ was aggregated at 50 μM in Neurobasal media with B-27 supplement and 0.5 mM glutamine at 37° C. for 24 hours. Then, the slice culture media was removed, and the slices were treated with 1 mL of 25 μM or 50 μM Aβ, reverse Aβ, or vehicle for 24 hour. Human TTR (Calbiochem) was added to slices together with the Aβ treatment at final concentrations of 0.03, 0.3, and 3 μM TTR. sAPPα was obtained from Sigma (St. Louis, Mo.). Unless otherwise stated, all sAPPα treatments were performed at 1 nM 48 hours prior to the addition of Aβ. The 10 amino acid fragment of the carboxyl-terminal region of sAPPα (592-601 of APP695; SEVKMDAEFR was added according to the same protocol for sAPPα. Because a variable amount of tissue was obtained from each patient, not all treatments were performed on all patients.
# hippocampi of mice [1] = assay: Stereotaxic injection into mouse hippocampus, quantitative real-time PCR; assay type: in vivo; settings: estimated 1 nM intra-hippocampal concentration, 48 hours after injection
# Experimental: (§1) Ten week old B6/SJL mice were stereotaxically injected on the right side of their hippocampi with sAPPα, a 10 amino acid fragment, or a scrambled 10-mer to an estimated 1 nM intra-hippocampal concentration. The contralateral sides were injected with artificial cerebrospinal fluid. Each injection consisted of […] of solution delivered over the period of 10 minutes. 48 hours after surgery, the mice were perfused with cold PBS, and their hippocampi were dissected and stored in stabilizing solution for subsequent RNA extraction.
# RNA was extracted from hippocampal samples, DNase treated, and reverse transcribed. The cDNA was then used in quantitative real-time PCR performed with SYBR green on the Roche LightCycler system. Portions of each RNA sample were also used in no-RT traditional PCR reactions to validate the absence of DNA contamination.
# hippocampi of mice [2] = assay: Stereotaxic injection into mouse hippocampus, TTR immunohistochemistry; assay type: in vivo
# Experimental: as §1
# 48 hours after injection, mice were perfused with 4% PFA. The brains were harvested, hemisected, and fixed in 4% PFA overnight. They were then sunk in 30% sucrose for 24 hours, frozen, and sectioned. Sections were stained with cresyl violet for morphological verification of the injection site. Other sections were stained with goat anti-TTR, and biotinylated secondary antibody to show TTR protein expression, and ToPro3 as a nuclear marker. A control for nonspecific staining was done with goat IgG.
# FIG. 13 is a set of stained micrographs showing stereotactic injection of sAPPα decamer into hippocampus induces expression of TTR in normal mouse brain. […] Injection of 1.5 μl of 15.3 nM solution prepared in artificial cerebral spinal fluid (CSF) was performed to approximate a final concentration of 1 nM in the hippocampus. The contralateral side was injected with only artificial CSF and used as control. […] The DNA binding dye ToPro3 was used to visualize nuclei (blue).
substance,measurement,setting,value
β-amyloid1-42 [Aβ],Number of cells that have lost membrane integrity,human cortical slices; 50 μM Aβ,dramatic increase
same,Percent death,"human cortical slices; 50 μM Aβ vs 50 μM reverse Aβ, FIG. 6A",significantly increased
SEVKMDAEFR,Protection against Aβ-induced death (percent death),"human cortical slices; 1 nM 48 hours prior to 50 μM Aβ, four subjects, FIG. 6A",significant protection
same,Expression of IGFBP2 in treated vs control side of hippocampus,hippocampi of mice [1]; FIG. 8,induced an increase in expression
same,Expression of IGF2 in treated vs control side of hippocampus,hippocampi of mice [1]; FIG. 10,induced an increase in expression
same,"Amount of TTR in and around the CA1 hippocampal neurons, immunohistochemistry","hippocampi of mice [2]; 1.5 μl of 15.3 nM solution (about 1 nM final) vs contralateral CSF injected hippocampus, FIG. 13",increased the amount of TTR
same,Levels of TTR within treated hippocampi,"hippocampi of mice [2]; estimated 1 nM intra-hippocampal concentration, 48 hours after injection",increased levels of TTR
DAEF [peptide of 4 residues within the 10 residue peptide (residues 597-600)],Protection against Aβ toxicity (percent death),"human cortical slices; 50 μM Aβ, sample from one subject, FIG. 6A",protected against 50 μM Aβ toxicity
same,TTR after injection into hippocampus,hippocampi of mice [2]; preliminary data,increased TTR
